Legend:
Type in all cases: in vivo
[1] = system: Nightshade; assay: Test C preemergence; conditions: Rate 500 g/ha, visual evaluation after 12 to 14 days
[2] = system: barnyardgrass (Echinochloa crus-galli); assay: Test B preemergence
Procedure, shortened: (§1)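 Post-treatment, species sat 13–15 days under greenhouse conditions before visual scoring against controls, 0 (no effect) through 100 (complete control). Application preemergence to sown seeds or postemergence at 1- to 4-leaf stage, using a non-phytotoxic solvent/surfactant formulation.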

[3] = system: giant foxtail (Setaria faberii); assay: Test B preemergence
Procedure, shortened: as §1

[4] = system: pigweed (Amaranthus retroflexus); assay: Test B preemergence
Procedure, shortened: as §1

[5] = system: velvetleaf (Abutilon theophrasti); assay: Test B preemergence
Procedure, shortened: as §1

[6] = system: crabgrass (Digitaria sanguinalis); assay: Test B preemergence
Procedure, shortened: as §1

[7] = system: rice (Oryza saliva); assay: Test B preemergence
Procedure, shortened: as §1

[8] = system: morning glory (Ipomoea hederacea); assay: Test B preemergence
Procedure, shortened: as §1

[9] = system: cocklebur (Xanthium strumarium); assay: Test B preemergence
Procedure, shortened: as §1

[10] = system: Surinam grass (Brachiaria decumbens); assay: Test B preemergence
Procedure, shortened: as §1

[11] = system: corn (Zea mays); assay: Test B preemergence
Procedure, shortened: as §1

[12] = system: lambsquarters (Chenopodium album); assay: Test B preemergence
Procedure, shortened: as §1

[13] = system: barnyardgrass (Echinochloa crus-galli); assay: Test B postemergence
Procedure, shortened: as §1

[14] = system: giant foxtail (Setaria faberii); assay: Test B postemergence; conditions: Rate 125 g/ha, scale 0 to 100, 0 no effect, 100 complete control
Procedure, shortened: as §1

[15] = system: wild oat (Avena fatua); assay: Test B postemergence; conditions: Rate 125 g/ha, scale 0 to 100, 0 no effect, 100 complete control
Procedure, shortened: as §1

[16] = system: pigweed (Amaranthus retroflexus); assay: Test B postemergence; conditions: Rate 125 g/ha, scale 0 to 100, 0 no effect, 100 complete control
Procedure, shortened: as §1

[17] = system: velvetleaf (Abutilon theophrasti); assay: Test B postemergence; conditions: Rate 125 g/ha, scale 0 to 100, 0 no effect, 100 complete control
Procedure, shortened: as §1

[18] = system: crabgrass (Digitaria sanguinalis); assay: Test B postemergence; conditions: Rate 125 g/ha, scale 0 to 100, 0 no effect, 100 complete control
Procedure, shortened: as §1

[19] = system: morning glory (Ipomoea hederacea); assay: Test B postemergence; conditions: Rate 125 g/ha, scale 0 to 100, 0 no effect, 100 complete control
Procedure, shortened: as §1

[20] = system: cocklebur (Xanthium strumarium); assay: Test B postemergence
Procedure, shortened: as §1

[21] = system: Surinam grass (Brachiaria decumbens); assay: Test B postemergence
Procedure, shortened: as §1

[22] = system: wheat (Triticum aestivum); assay: Test B postemergence; conditions: Rate 125 g/ha, scale 0 to 100, 0 no effect, 100 complete control
Procedure, shortened: as §1

[23] = system: corn (Zea mays); assay: Test B postemergence
Procedure, shortened: as §1

[24] = system: lambsquarters (Chenopodium album); assay: Test B postemergence; conditions: Rate 125 g/ha, scale 0 to 100, 0 no effect, 100 complete control
Procedure, shortened: as §1

[25] = system: blackgrass (Alopecurus myosuroides); assay: Test B postemergence
Procedure, shortened: as §1

[26] = system: Sunflower; assay: Test C preemergence; conditions: Rate 250 g/ha, scale 0 to 100, 0 no effect, 100 complete control
[27] = Preemergence, Rate 500 g/ha, scale 0 to 100, 0 no effect, 100 complete control
[28] = preemergence, Rate 125 g/ha, scale of 0 to 100 where 0 is no effect and 100 is complete control, 13 to 15 days
[29] = Rate 125 g/ha, scale 0 to 100, 0 no effect, 100 complete control
[30] = Rate 500 g/ha, scale 0 to 100, 0 is no effect, 100 is complete control, 13 to 15 days

## COc1cc(N2CCC(n3ccc(C(C)C)n3)C2=O)ccc1Cl (stereo not drawn) [Compound 120]
[1]
  Plant response rating (0 to 100), Nightshade: 100
[2]; [27]
  Plant response rating, Barnyardgrass: 100
[2]; [28]
  Plant response rating, Barnyardgrass: 100
[3]; [27]
  Plant response rating, Foxtail, Giant: 100
[3]; [28]
  Plant response rating, Foxtail, Giant: 100
[4]; [27]
  Plant response rating, Pigweed: 100
[4]; [28]
  Plant response rating, Pigweed: 100
[5]; [27]
  Plant response rating, Velvetleaf: 40
[5]; [28]
  Plant response rating, Velvetleaf: 20
[6]; [27]
  Plant response rating, Crabgrass: 100
[6]; [28]
  Plant response rating, Crabgrass: 100
[7]; [27]
  Plant response rating, Rice: 30
[7]; [28]
  Plant response rating, Rice: 20
[8]; [27]
  Plant response rating, Morningglory: 100
[8]; [28]
  Plant response rating, Morningglory: 70
[9]; [27]
  Plant response rating, Cocklebur: 40
[9]; [28]
  Plant response rating, Cocklebur: 20
[10]; [27]
  Plant response rating, Surinam grass: 100
[10]; [28]
  Plant response rating, Surinam grass: 40
[11]; [27]
  Plant response rating, Corn: 50
[11]; [28]
  Plant response rating, Corn: 20
[12]; [27]
  Plant response rating, Lambsquarters: 100
[12]; [28]
  Plant response rating, Lambsquarters: 100
[13]; [29]
  Plant response rating, Barnyardgrass: 0
[13]; [30]
  Plant response rating, Barnyardgrass: 60
[14]
  Plant response rating, Foxtail, Giant: 0
[15]
  Plant response rating, Wild Oat: 30
[16]
  Plant response rating, Pigweed: 60
[17]
  Plant response rating, Velvetleaf: 20
[18]
  Plant response rating, Crabgrass: 30
[19]
  Plant response rating, Morningglory: 50
[20]; [29]
  Plant response rating, Cocklebur: 90
[20]; [30]
  Plant response rating, Cocklebur: 100
[21]; [29]
  Plant response rating, Surinam grass: 20
[21]; [30]
  Plant response rating, Surinam grass: 40
[22]
  Plant response rating, Wheat: 10
[23]; [29]
  Plant response rating, Corn: 0
[23]; [30]
  Plant response rating, Corn: 20
[24]
  Plant response rating, Lambsquarters: 60
[25]; [29]
  Plant response rating, Blackgrass: 0
[25]; [30]
  Plant response rating, Blackgrass: 0
[26]
  Plant response rating, Sunflower: 100

## CCCC(C)c1ccn(C2CCN(c3ccc(Cl)c(OC)c3)C2=O)n1 (stereo not drawn) [Compound 121]
[1]
  Plant response rating (0 to 100), Nightshade: 100
[2]; [27]
  Plant response rating, Barnyardgrass: 100
[2]; [28]
  Plant response rating, Barnyardgrass: 40
[3]; [27]
  Plant response rating, Foxtail, Giant: 100
[3]; [28]
  Plant response rating, Foxtail, Giant: 0
[4]; [27]
  Plant response rating, Pigweed: 100
[4]; [28]
  Plant response rating, Pigweed: 100
[5]; [27]
  Plant response rating, Velvetleaf: 20
[5]; [28]
  Plant response rating, Velvetleaf: 10
[6]; [27]
  Plant response rating, Crabgrass: 100
[6]; [28]
  Plant response rating, Crabgrass: 10
[7]; [27]
  Plant response rating, Rice: 0
[7]; [28]
  Plant response rating, Rice: 0
[8]; [27]
  Plant response rating, Morningglory: 30
[8]; [28]
  Plant response rating, Morningglory: 20
[9]; [27]
  Plant response rating, Cocklebur: 30
[9]; [28]
  Plant response rating, Cocklebur: 10
[10]; [27]
  Plant response rating, Surinam grass: 40
[10]; [28]
  Plant response rating, Surinam grass: 0
[11]; [27]
  Plant response rating, Corn: 50
[11]; [28]
  Plant response rating, Corn: 20
[12]; [27]
  Plant response rating, Lambsquarters: 100
[12]; [28]
  Plant response rating, Lambsquarters: 100
[13]; [29]
  Plant response rating, Barnyardgrass: 0
[13]; [30]
  Plant response rating, Barnyardgrass: 90
[14]
  Plant response rating, Foxtail, Giant: 0
[15]
  Plant response rating, Wild Oat: 30
[16]
  Plant response rating, Pigweed: 50
[17]
  Plant response rating, Velvetleaf: 30
[18]
  Plant response rating, Crabgrass: 30
[19]
  Plant response rating, Morningglory: 50
[20]; [29]
  Plant response rating, Cocklebur: 70
[20]; [30]
  Plant response rating, Cocklebur: 100
[21]; [29]
  Plant response rating, Surinam grass: 30
[21]; [30]
  Plant response rating, Surinam grass: 40
[22]
  Plant response rating, Wheat: 50
[23]; [29]
  Plant response rating, Corn: 20
[23]; [30]
  Plant response rating, Corn: 30
[24]
  Plant response rating, Lambsquarters: 80
[25]; [29]
  Plant response rating, Blackgrass: 0
[25]; [30]
  Plant response rating, Blackgrass: 0
[26]
  Plant response rating, Sunflower: 50
